Values quoted from earlier work as cited in US20160128954A1 (Raptor Pharmaceuticals Inc., priority 2014, published 2016).

Columns and labels:
[1] = in vivo
[2] = test system: mice with the gene mutation for Huntington's disease (HD); conditions: mouse, in vivo
[3] = test system: circulating white blood cells
HD patients = conditions: five patients over 2 weeks

NCCSSCCN [cystamine, Cystamine]
crossing of the blood-brain barrier [1]: does not, or corsses less efficiently than cysteamine | effect on tremors and life span [2]: alleviate tremors and prolong life

NCCS [cysteamine, Cysteamine (HS—CH2—CH2—NH2)]
time to decrease in leukocyte cystine ([3]; delivery into the small intestine (WO 2007/089670)): within an hour | depletion of intracellular cystine ([3]; taken regularly, measured in circulating white blood cells): up to 90% | efficacy in HD (HD patients): no efficacy | crossing of the blood-brain barrier [1]: crosses the blood-brain barrier
